In patent publication US20230374038A1, “MODULATORS OF CYSTIC FIBROSIS TRANSMEMBRANE CONDUCTANCE REGULATOR” (VERTEX PHARMACEUTICALS INCORPORATED, priority 2020, published 2023):

Key:
CFTR [1] = biological target: T1, CFTR (Homo sapiens, UniProt P13569, DEL508-508); test: HBE2 Assay: Ussing chamber assay of CFTR-mediated short-circuit currents in F508del/MF-HBE cells with 44 nM (6R,12R)-17-amino-12-methyl-6,15-bis(trifluoromethyl)-13,19-dioxa-3,4,18-triazatricyclo[12.3.1.12,5]nonadeca-1(18),2,4,14,16-pentaen-6-ol; type: cell-based; conditions: 3 μM with 44 nM (6R,12R)-17-amino-12-methyl-6,15-bis(trifluoromethyl)-13,19-dioxa-3,4,18-triazatricyclo[12.3.1.12,5]nonadeca-1(18),2,4,14,16-pentaen-6-ol, 18-24 hours, 20% human serum
T1 construct: endogenous in cells; host or cells: primary human bronchial epithelial cells, F508del/MF genotype
T1 sequence (P13569 with tags, fused parts or gaps DEL508-508): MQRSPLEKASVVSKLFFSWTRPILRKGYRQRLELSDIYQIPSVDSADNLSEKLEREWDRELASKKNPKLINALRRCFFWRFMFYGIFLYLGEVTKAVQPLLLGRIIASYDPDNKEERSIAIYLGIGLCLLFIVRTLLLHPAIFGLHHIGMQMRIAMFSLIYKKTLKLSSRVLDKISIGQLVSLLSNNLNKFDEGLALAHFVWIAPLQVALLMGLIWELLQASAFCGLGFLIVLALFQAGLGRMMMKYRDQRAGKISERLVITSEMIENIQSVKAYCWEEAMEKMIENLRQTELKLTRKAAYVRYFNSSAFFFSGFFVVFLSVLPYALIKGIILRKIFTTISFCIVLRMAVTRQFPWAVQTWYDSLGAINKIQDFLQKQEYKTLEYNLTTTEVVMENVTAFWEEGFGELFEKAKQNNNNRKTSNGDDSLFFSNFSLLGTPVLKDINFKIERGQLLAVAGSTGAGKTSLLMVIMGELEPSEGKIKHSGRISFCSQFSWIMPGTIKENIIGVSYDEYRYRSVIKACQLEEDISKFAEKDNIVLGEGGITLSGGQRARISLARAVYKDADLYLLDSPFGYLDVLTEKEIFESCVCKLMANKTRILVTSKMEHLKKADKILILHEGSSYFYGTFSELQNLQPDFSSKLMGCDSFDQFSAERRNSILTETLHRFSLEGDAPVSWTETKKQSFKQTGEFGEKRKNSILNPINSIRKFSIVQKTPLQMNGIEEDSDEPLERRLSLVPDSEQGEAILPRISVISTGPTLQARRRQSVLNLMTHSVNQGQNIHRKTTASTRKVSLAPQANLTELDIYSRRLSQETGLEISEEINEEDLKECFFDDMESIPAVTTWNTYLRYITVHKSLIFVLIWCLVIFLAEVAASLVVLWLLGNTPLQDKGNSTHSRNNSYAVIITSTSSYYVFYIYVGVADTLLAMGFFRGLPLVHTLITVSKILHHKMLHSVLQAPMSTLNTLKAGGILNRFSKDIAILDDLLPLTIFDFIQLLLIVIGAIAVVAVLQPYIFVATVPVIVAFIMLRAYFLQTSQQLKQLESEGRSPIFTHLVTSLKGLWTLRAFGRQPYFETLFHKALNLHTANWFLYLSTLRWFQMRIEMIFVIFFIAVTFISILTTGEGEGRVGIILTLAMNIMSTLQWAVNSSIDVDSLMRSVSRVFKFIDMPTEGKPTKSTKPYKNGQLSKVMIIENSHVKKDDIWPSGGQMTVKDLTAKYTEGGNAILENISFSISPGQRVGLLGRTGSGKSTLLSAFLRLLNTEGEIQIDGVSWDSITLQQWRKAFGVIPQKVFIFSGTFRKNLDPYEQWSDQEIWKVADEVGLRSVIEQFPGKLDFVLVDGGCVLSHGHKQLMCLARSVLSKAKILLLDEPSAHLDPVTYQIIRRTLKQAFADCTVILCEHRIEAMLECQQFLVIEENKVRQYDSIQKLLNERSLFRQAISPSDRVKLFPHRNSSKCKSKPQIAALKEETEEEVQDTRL
Description: Ussing chamber experiments were performed using human bronchial epithelial (HBE) cells derived from CF subjects heterozygous for F508del and a minimal function CFTR mutation (F508del/MF-HBE) and cultured as previously described (Neuberger T, Burton B, Clark H, Van Goor F Methods Mol Biol 2011:741:39-54). After four days the apical media was removed, and the cells were grown at an air liquid interface for >14 days prior to use.
To isolate the CFTR-mediated short-circuit (ISC) current, F508del/MF-HBE grown on Costar® Snapwell™ cell culture inserts were mounted in an Ussing chamber and the transepithelial ISC was measured under voltage-clamp recording conditions (Vhold=0 mV) at 37° C. The basolateral solution contained (in mM) 145 NaCl, 0.83 K2HPO4, 3.3 KH2PO4, 1.2 MgCl2, 1.2 CaCl2), 10 Glucose, 10 HEPES (pH adjusted to 7.4 with NaOH) and the apical solution contained (in mM) 145 NaGluconate, 1.2 MgCl2, 1.2 CaCl2), 10 glucose, 10 HEPES (pH adjusted to 7.4 with NaOH) and 30 μM amiloride to block the epithelial sodium channel. Forskolin (20 μM) was added to the apical surface to activate CFTR, followed by apical addition of a CFTR inhibitor cocktail consisting of BPO, GlyH-101, and CFTR inhibitor 172 (each at 20 μM final assay concentration) to specifically isolate CFTR currents. The CFTR-mediated ISC (μA/cm^2) for each condition was determined from the peak forskolin response to the steady-state current following inhibition.
The activity of the CFTR corrector compounds on the CFTR-mediated ISC was determined in Ussing chamber studies as described above. The F508del/MF-HBE cell cultures were either incubated with the corrector compounds at a range of concentrations in combination with 44 nM (6R,12R)-17-amino-12-methyl-6,15-bis(trifluoromethyl)-13,19-dioxa-3,4,18-triazatricyclo[12.3.1.12,5]nonadeca-1(18),2,4,14,16-pentaen-6-ol or were incubated with the corrector compounds at a single fixed concentration of 1 and 3 μM in combination with 44 nM (6R,12R)-17-amino-12-methyl-6,15-bis(trifluoromethyl)-13,19-dioxa-3,4,18-triazatricyclo[12.3.1.12,5]nonadeca-1(18),2,4,14,16-pentaen-6-ol for 18-24 hours at 37° C. and in the presence of 20% human serum. The concentration of corrector compounds with 44 nM (6R,12R)-17-amino-12-methyl-6,15-bis(trifluoromethyl)-13,19-dioxa-3,4,18-triazatricyclo[12.3.1.12,5]nonadeca-1(18),2,4,14,16-pentaen-6-ol during the 18-24 hours incubations was kept constant throughout the Ussing chamber measurement of the CFTR-mediated ISC to ensure compounds were present throughout the entire experiment.

[2] = from CCc1c(Cl)nc(NS(=O)(=O)c2cccc(N)c2)nc1Oc1ccc(Cl)c(C(=O)O)c1; amide bond; 14-membered ring; HATU/DIEA; DMF; 0.42 h; 3 steps
F508del = biological target: T2, F508del (Homo sapiens, UniProt P13569, DEL508-508); test: 3T3 Assay: membrane potential optical assay for F508del correctors in NIH 3T3 cells; type: cell-based; conditions: for EC50: F508del corrector assay; for Emax: NIH3T3, F508del corrector assay, read-out: 3T3 Max Activity
T2 construct: expressed in transfected cells; host or cells: NIH3T3 mouse fibroblasts
T2 sequence (P13569 with tags, fused parts or gaps DEL508-508): as above
Source text: The assay utilizes fluorescent voltage sensing dyes to measure changes in membrane potential using a fluorescent plate reader (e.g., FLIPR III, Molecular Devices, Inc.) as a readout for increase in functional F508del in NIH 3T3 cells. The driving force for the response is the creation of a chloride ion gradient in conjunction with channel activation by a single liquid addition step after the cells have previously been treated with compounds and subsequently loaded with a voltage sensing dye.
To identify correctors of F508del, a single-addition HTS assay format was developed. This HTS assay utilizes fluorescent voltage sensing dyes to measure changes in membrane potential on the FLIPR III as a measurement for increase in gating (conductance) of F508del in F508del NIH 3T3 cells. The F508del NIH 3T3 cell cultures were incubated with the corrector compounds at a range of concentrations for 18-24 hours at 37° C., and subsequently loaded with a redistribution dye. The driving force for the response is a Cl^− ion gradient in conjunction with channel activation with forskolin in a single liquid addition step using a fluorescent plate reader such as FLIPR III.
Bath Solution #1: (in mM) NaCl 160, KCl 4.5, CaCl2) 2, MgCl2 1, HEPES 10, pH 7.4 with NaOH.
Chloride-free bath solution: Chloride salts in Bath Solution #1 (above) are substituted with gluconate salts.
NIH3T3 mouse fibroblasts stably expressing F508del are used for optical measurements of membrane potential. The cells are maintained at 37° C. in 5% CO2 and 90% humidity in Dulbecco's modified Eagle's medium supplemented with 2 mM glutamine, 10% fetal bovine serum, 1×NEAA, b-ME, 1× pen/strep, and 25 mM HEPES in 175 cm^2 culture flasks. For all optical assays, the cells were seeded at ˜20,000/well in 384-well matrigel-coated plates. For the correction assays, the cells are cultured at 37° C. with and without compounds for 16-24 hours.

CFTR [3] = biological target: CFTR (Homo sapiens, UniProt P13569); test: Membrane Potential Dye, Enteroid Assay A; type: cell-based; conditions: for EC50: read-out: Ent. A EC50
Sequence of CFTR (Homo sapiens, UniProt P13569) (P13569 with tags, fused parts or gaps DEL508-508): as above

Compound: Cc1cccc(C)c1-c1nc2nc(c1F)OC[C@@H](CCC(C)(C)C)N(Cc1cncc(N3CCC[C@H]3C)n1)C(=O)c1cccc(c1)S(=O)(=O)N2 [Compound 366]
- HBE2 Activity at 3 μM (%) (CFTR [1]): +++ (+++ is >60%)

Compound: Cc1cccc(CC(C)C)c1-c1nc2nc(c1C)OC[C@@H](CC(C)(C)C)N(Cc1cncc(N(C)C3CCC3)n1)C(=O)c1cccc(c1)S(=O)(=O)N2 (atropisomer, axis not shown) [Compound 357]
- HBE2 Activity at 3 μM (%) (CFTR [1]): +++ (+++ is >60%)

Compound: CCc1c(Cl)nc2nc1Oc1ccc(Cl)c(c1)C(=O)Nc1cccc(c1)S(=O)(=O)N2
- ring closure, isolated yield [2]: 7%

Compound: Cc1cccc(C)c1-c1nc2nc(c1F)OC[C@@H](CCC(C)(C)C)N(Cc1cnc3cc(C(C)C)n(C)c3n1)C(=O)c1cccc(c1)S(=O)(=O)N2 [Compound 368]
- HBE2 Activity at 3 μM (%) (CFTR [1]): +++ (+++ is >60%)

Compound: Cc1cccc(CC2CCCCC2)c1-c1nc2nc(c1C)OC[C@@H](CC(C)(C)C)N(Cc1cncc(N(C)C3CCC3)n1)C(=O)c1cccc(c1)S(=O)(=O)N2 [Compound 360]
- HBE2 Activity at 3 μM (%) (CFTR [1]): +++ (+++ is >60%)

Compound: Cc1cccc(C)c1-c1nc2cc(c1C(F)(F)F)OC[C@@H](CC(C)(C)C)N(Cc1cncc(N(C)C3CCC3)n1)C(=O)c1cccc(c1)S(=O)(=O)N2 [Compound 363, (11R)-12-[[6-[Cyclobutyl(methyl)amino]pyrazin-2-yl]methyl]-6-(2,6-dimethylphenyl)-11-(2,2-dimethylpropyl)-2,2-dioxo-7-(trifluoromethyl)-9-oxa-2λ^6-thia-3,5,12-triazatricyclo[12.3.1.14,8]nonadeca-1(18),4(19),5,7,14,16-hexaen-13-one]
- HBE2 Activity at 3 μM (%) (CFTR [1]): +++ (+++ is >60%)

Compound: Cc1cccc(C)c1-c1nc2nc(c1C)OC[C@@H](CC(C)C)N(Cc1cncc(N(C)C3CCC3)n1)C(=O)c1cccc(c1)S(=O)(=O)N2 [Compound 358]
- HBE2 Activity at 3 μM (%) (CFTR [1]): +++ (+++ is >60%)

Compound: Cc1cccc(CCC(C)C)c1-c1nc2nc(c1C)OC[C@@H](CC(C)(C)C)N(Cc1ncc(OC(C)C)cn1)C(=O)c1cccc(c1)S(=O)(=O)N2 (atropisomer, axis not shown; (P)) [Compound 334, (5P,11R)-11-(2,2-Dimethylpropyl)-7-methyl-6-[2-methyl-6-(3-methylbutyl)phenyl]-12-{[5-(propan-2-yloxy)pyrimidin-2-yl]methyl}-9-oxa-2λ^6-thia-3,5,12,19-tetraazatricyclo[12.3.1.14,8]nonadeca-1(17),4(19),5,7,14(18),15-hexaene-2,2,13-trione]
- HBE2 Activity at 3 μM (%) (CFTR [1]): +++ (+++ is >60%)

Compound: Cc1cccc(C)c1-c1nc2nc(c1C)OC[C@@H](CC(C)(C)C)N(c1cnn(C)c1CC(C)C)C(=O)c1cccc(c1)S(=O)(=O)N2 [Compound 364, (11R)-6-(2,6-Dimethylphenyl)-11-(2,2-dimethylpropyl)-12-(5-isobutyl-1-methyl-pyrazol-4-yl)-7-methyl-2,2-dioxo-9-oxa-2λ^6-thia-3,5,12,19-tetrazatricyclo[12.3.1.14,8]nonadeca-1(18),4(19),5,7,14,16-hexaen-13-one]
- HBE2 Activity at 3 μM (%) (CFTR [1]): +++ (+++ is >60%)

Compound: CCc1c2nc(nc1-c1ccccc1C(C)C)NS(=O)(=O)c1cccc(c1)NC(=O)c1cccc(c1C)O2 [Compound 15]
- EC50 (F508del): < 1000 nM
- Emax (F508del): > 60%
- Ent. A Max Activity (CFTR [3]): +++ (+++ is >60%)
- EC50 (CFTR [3]): < 1000 nM

Compound: Cc1cccc(OC(C)C)c1-c1nc2nc(c1C)OC[C@@H](CC(C)(C)C)N(Cc1ncc(N3CCC(C)(C)C3)cn1)C(=O)c1cccc(c1)S(=O)(=O)N2 (atropisomer, axis not shown) [Compound 356]
- HBE2 Activity at 3 μM (%) (CFTR [1]): +++ (+++ is >60%)

Compound: CCc1c2nc(nc1-c1ccccc1C(C)C)NS(=O)(=O)c1cccc(c1)NC(=O)c1cccc(c1)O2 [Compound 16]
- EC50 (F508del): < 1000 nM
- Emax (F508del): > 60%
- Ent. A Max Activity (CFTR [3]): +++ (+++ is >60%)
- EC50 (CFTR [3]): < 1000 nM

Compound: Cc1cccc(C)c1-c1nc2nc(c1F)OC[C@@H](CCC(C)(C)C)N(Cc1ncc(OC(C)C)cn1)C(=O)c1cccc(c1)S(=O)(=O)N2 [Compound 369]
- HBE2 Activity at 3 μM (%) (CFTR [1]): +++ (+++ is >60%)

Compound: Cc1cccc(C)c1-c1nc2nc(c1F)OC[C@@H](CCC(C)(C)C)N(Cc1cncc(N(C)C3CCC3)n1)C(=O)c1cccc(c1)S(=O)(=O)N2 [Compound 365]
- HBE2 Activity at 3 μM (%) (CFTR [1]): +++ (+++ is >60%)

Compound: Cc1cccc(C)c1-c1nc2nc(c1F)OC[C@@H](CCC(C)(C)C)N(Cc1cncc(N3CCCC[C@H]3C)n1)C(=O)c1cccc(c1)S(=O)(=O)N2 [Compound 367]
- HBE2 Activity at 3 μM (%) (CFTR [1]): +++ (+++ is >60%)

Compound: CCc1c2nc(nc1-c1ccccc1CC(C)C)NS(=O)(=O)c1cccc(c1)NC(=O)c1cccc(c1)O2 [Compound 3, 4-Ethyl-5-(2-isobutylphenyl)-9,9-dioxo-2-oxa-9λ^6-thia-6,8,15,23-tetrazatetracyclo[15.3.1.13,7.110,14]tricosa-1(21),3,5,7(23),10,12,14(22),17,19-nonaen-16-one]
- EC50 (F508del): < 1000 nM
- Emax (F508del): > 60%
- Ent. A Max Activity (CFTR [3]): +++ (+++ is >60%)
- EC50 (CFTR [3]): < 1000 nM

Compound: Cc1cccc(C)c1-c1nc2nc(c1C)OC[C@@H](CC(C)(C)C)N(Cc1cncc(N(C)C3CCC3)n1)C(=O)c1cccc(c1)S(=O)(=O)N2 [Compound 359]
- HBE2 Activity at 3 μM (%) (CFTR [1]): +++ (+++ is >60%)

Compound: Cc1cccc(CCC(C)C)c1-c1nc2nc(c1C)OC[C@@H](CC(C)(C)C)N(Cc1ncc(OC(C)C)cn1)C(=O)c1cccc(c1)S(=O)(=O)N2 (atropisomer, axis not shown; (M)) [Compound 333, (5M,11R)-11-(2,2-Dimethylpropyl)-7-methyl-6-[2-methyl-6-(3-methylbutyl)phenyl]-12-{[5-(propan-2-yloxy)pyrimidin-2-yl]methyl}-9-oxa-2λ^6-thia-3,5,12,19-tetraazatricyclo[12.3.1.14,8]nonadeca-1(17),4(19),5,7,14(18),15-hexaene-2,2,13-trione]
- HBE2 Activity at 3 μM (%) (CFTR [1]): +++ (+++ is >60%)

Compound: CC(C)=Cc1c(N2C(=O)c3cccc(c3)S(=O)(=O)Nc3nc(c(C)c(-c4c(C)cccc4C)n3)OC[C@H]2CC(C)(C)C)cnn1C [Compound 361, (11R)-6-(2,6-Dimethylphenyl)-11-(2,2-dimethylpropyl)-7-methyl-12-[1-methyl-5-(2-methylprop-1-enyl)pyrazol-4-yl]-2,2-dioxo-9-oxa-2λ^6-thia-3,5,12,19-tetrazatricyclo[12.3.1.14,8]nonadeca-1(18),4(19),5,7,14,16-hexaen-13-one]
- HBE2 Activity at 3 μM (%) (CFTR [1]): +++ (+++ is >60%)
